We go through two compounds from US8163287B2, “Combination therapy of her expressing tumors” (Genentech, Inc., priority 2005, dated 2012).

For data set [1], the system named is human lung, breast and ovarian cancer xenograft models. Put plainly: Antitumor activity in human cancer xenograft models (26 tumor xenografts). It counts as in vivo, NMRI nu/nu nude mice. The note with it: for tumors responsive to both erlotinib and pertuzumab: of 26 tumors (12%); for tumors that did not respond to treatment with either pertuzumab or erlotinib: of the 26 tumors tested (42%), pertuzumab i.p. 100 mg/kg, erlotinib orally 25 mg/kg. The source says: (§1) The tumor models were established by implanting tumor tissues obtained from human patients into randomized NMRI nu/nu nude mice (Oncotest GmbH, Freiburg, Germany) and tumors were propagated until stable tumor growth behavior was observed. After removal of the tumor from the donor mice, the tumor was cut into fragments (2 mm diameter) and placed in RPMI 1640 culture medium until subcutaneous implantation in the mice. The tumor fragments (two per mouse) were transplanted by tweezers. The mice were monitored daily.
(§2) The substance was diluted with a buffer containing 10 mM L-histidine, 240 mM sucrose, 0.02% polysorbate 20 pH 6 (HCl). The solutions were prepared fresh daily. Erlotinib was delivered as a ready-to-use formulation dissolved in 6% captisol.
Erlotinib was administered orally (25 mg/kg). The control mice received the vehicle by the same procedure and on the same schedule as the test compound.
(§3) The antitumor effect was evaluated following maximum tumor inhibition versus the control group.
Tumor volumes were determined by two-dimensional measurement with a caliper at the day of randomization (day 0) and then 2-3 times weekly. The tumor volume was calculated using the following formula: Tumor Volume=(a×b^2)×0.5,
where a and b represent two perpendicular tumor diameters, a=length (longer diameter), b=width (shorter diameter). All mice of a treatment group were sacrificed when the tumors reached mean diameters of approximately 16 mm.
Relative tumor volumes (RTV) were calculated for each individual tumor, by dividing the tumor volume on day X (Vx) by the tumor volume on day 0 (V0) multiplied by 100%. The tumor volume of a treatment group was expressed as the median RTV of all mice of the group. Median RTV volumes were used for drawing growth curves and treatment evaluation.
Optimal tumor growth inhibition at a particular day within the experimental period was calculated from the median RTV values of the test versus control groups multiplied by 100% (T/C 100%).
Relative tumor volume (Tx/T0) was defined as the median relative tumor volume of the test group on day X divided by the medium relative tumor volume of the test group on day 0, multiplied by 100.
T/C % and Tx/T0 were used for activity rating of the levels of efficacy, which were defined as follows: […]

Data set [2] concerns lung adenocarcinoma designated LXFA 629. Put plainly: Antitumor activity in the LXFA 629 xenograft. It counts as in vivo, NMRI nu/nu nude mice. The note with it: each agent alone; pertuzumab i.p. 100 mg/kg, erlotinib orally 25 mg/kg.
Source text: as §1, §2
Erlotinib was administered orally (25 mg/kg). […]
as §3
Tumor volumes were determined by two-dimensional measurement with a caliper at the day of randomization (day 0) and then 2-3 times weekly. The tumor volume was calculated using the following formula: Tumor Volume=(a×b^2)×0.5, […]
Relative tumor volumes (RTV) were calculated for each individual tumor, by dividing the tumor volume on day X (Vx) by the tumor volume on day 0 (V0) multiplied by 100%. The tumor volume of a treatment group was expressed as the median RTV of all mice of the group. […]

For data set [3] the following is noted: cited from earlier work.
The test system of data set [4] is incurable, locally advanced, recurrent or metastatic solid tumors. The settings on record: cited from earlier work.

As for `C#Cc1cccc(Nc2ncnc3cc(OCCOC)c(OCCOC)cc23)c1` [erlotinib, N-(3-ethynylphenyl)-6,7-bis(2-methoxyethoxy)-4-quinazolinamine], in data set [1] (NSCLC only, of 21 (23%)), the “NSCLC tumors that responded to erlotinib but not to pertuzumab” value amounted to 5 tumors. The “NSCLC tumors with no response to pertuzumab or erlotinib monotherapy” value in data set [1] (NSCLC only, out of the 21 tumors tested (43%)) is 9 tumors. For the same compound, in data set [1] (monotherapy), the “tumors responsive to both erlotinib and pertuzumab” value was found to be 3 tumors; the “tumors that did not respond to treatment with either pertuzumab or erlotinib” value turned out to be 11 tumors. The “tumors moderately responsive to erlotinib, but not pertuzumab” value in data set [1] (monotherapy, of 26 tumors (27%)) was determined as 7 tumors. Further, the “activity rating (response to monotherapy)” value in data set [2] is listed as “moderate response”.

For “pertuzumab: antibody comprising the light and heavy chain amino acid sequences of SEQ ID NOS. 11 and 12; HER dimerization inhibitor”, the “pharmacokinetics (dose linearity)” value in data set [3] (doses of 2.0-15 mg/kg) is “linear”. Besides, the antibodies to pertuzumab result in data set [3] (patients) is “not detected”. For the same compound, in data set [4] (Phase I, single agent), the confirmed partial responses entry is reported as “Two”. In addition, the tumor regression achieved in data set [4] (of 20 patients evaluable for response) is 3 patients. Moreover, the tolerability entry in data set [4] (patients, intravenously every 3 weeks) was “generally well tolerated”. The “NSCLC tumors that responded to pertuzumab but not erlotinib” value in data set [1] (NSCLC only, of 21 (14%)) was found to be 3 tumors. Moreover, in data set [1] (monotherapy), the “tumors responsive to both erlotinib and pertuzumab” value worked out at 3 tumors; the “tumors that did not respond to treatment with either pertuzumab or erlotinib” value worked out at 11 tumors.
